According to US12214036B2, “Combination therapy comprising AXL/MER and PD-1/PD-L1 inhibitors” (Incyte Corporation, priority 2020, dated 2025):

What was measured:
MER = target: T1, MER (Homo sapiens, UniProt Q12866); assay: Phospho-MER inhibition assay in G361 cells (ELISA); type: cell-based; design: G361 cells, a melanoma cell line expressing high level of MER kinase; endogenous in cells; host or cells: G361; settings: G361 melanoma cells, N=2 (FIG. 3); read-out: IC50, MER phosphorylation induced by MAB8912
T1 sequence (Q12866 21-999): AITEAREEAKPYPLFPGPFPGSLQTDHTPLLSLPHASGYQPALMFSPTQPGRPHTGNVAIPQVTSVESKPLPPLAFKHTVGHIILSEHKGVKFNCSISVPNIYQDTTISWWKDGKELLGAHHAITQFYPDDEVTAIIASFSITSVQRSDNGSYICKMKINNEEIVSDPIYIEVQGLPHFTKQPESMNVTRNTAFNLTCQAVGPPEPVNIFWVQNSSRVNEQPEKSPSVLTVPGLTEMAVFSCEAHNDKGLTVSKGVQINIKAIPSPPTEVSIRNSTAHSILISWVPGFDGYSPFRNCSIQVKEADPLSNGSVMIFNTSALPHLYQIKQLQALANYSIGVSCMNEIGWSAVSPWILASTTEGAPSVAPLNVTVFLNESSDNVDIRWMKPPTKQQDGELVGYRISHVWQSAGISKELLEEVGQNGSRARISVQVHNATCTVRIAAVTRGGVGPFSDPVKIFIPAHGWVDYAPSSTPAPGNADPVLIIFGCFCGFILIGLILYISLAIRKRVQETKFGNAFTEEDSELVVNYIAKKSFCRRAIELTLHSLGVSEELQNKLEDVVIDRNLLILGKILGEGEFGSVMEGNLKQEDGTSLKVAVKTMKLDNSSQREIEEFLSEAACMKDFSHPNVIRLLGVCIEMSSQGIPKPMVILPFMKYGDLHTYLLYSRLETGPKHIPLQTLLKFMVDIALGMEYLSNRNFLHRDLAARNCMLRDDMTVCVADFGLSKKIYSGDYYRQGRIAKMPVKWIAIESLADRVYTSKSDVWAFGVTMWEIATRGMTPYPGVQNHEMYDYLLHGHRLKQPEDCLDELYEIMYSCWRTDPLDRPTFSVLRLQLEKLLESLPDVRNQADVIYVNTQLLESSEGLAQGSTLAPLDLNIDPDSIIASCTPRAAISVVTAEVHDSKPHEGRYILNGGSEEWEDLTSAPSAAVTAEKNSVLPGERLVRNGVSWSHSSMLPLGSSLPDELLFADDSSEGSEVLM
Method: The potency of Compound 1 in blocking MER auto-phosphorylation was evaluated in G361 cells, a melanoma cell line expressing high level of MER kinase.
Newly thawed G361 cells were allowed to recover for three passages before use, and only cells within 20 passages after thawing were used in the assay. Cells were kept under nonconfluent conditions and used in log-phase growth. Two mL of 1×10^6 cells/mL (2×10^6 cells/well) G361 cells were added to a six-well tissue-culture plates (Corning Incorporated; #3961) for 2 days. At the time of the assay, 1 mL of medium was added to each well. […] The optical density of the plate was measured using a Molecular Devices SpectraMax Plus microplate reader (Molecular Devices, San Jose, Calif.) at 450 nm with wavelength correction at 540 nm. Absorbance of the standards was plotted versus the concentration to generate a standard curve using four-parameter algorithm curve fitting software (SOFTmax PRO application, Molecular Devices). pMER concentrations for unknown samples were determined by extrapolation from the standard curve. IC50 values were calculated by GraphPad Prism 7.0 using a nonlinear regression sigmoidal dose-response curve with variable slope.

[1] = test system: BAF3 cells expressing AXL; assay: BAF3-AXL cell proliferation assay (CellTiter-Glo); type: cell-based; settings: Mus musculus, 48 hours, 2% FBS
Text: To evaluate the cellular potency and selectivity within the TAM receptor family, mouse BAF3 cell lines with stable expression of AXL, MER, or TYRO3 were generated.
The cytoplasmic domain of AXL, MER, or TYRO3 fused with dimerization sequence and HA tag was cloned into a pMSCV (murine stem cell virus) vector with a puromycin-resistance marker to generate three constructs individually by electroporation into BAF3 cells. Single clones that were IL-3-independent and puromycin-resistant were selected and characterized. To evaluate effects on BAF3 cell proliferation, 1000 cells/well of BAF3, BAF3-AXL, BAF3 MER, or BAF3-TYRO3 cells were treated in the presence or absence of Compound 1 at various concentrations (10 concentration points with a three-fold dilution factor from the highest concentration of 10 μM) diluted in RPMI-1640 with 2% FBS for 48 hours in a 384-well plate. Cell viability was measured by ATP assay (CellTiter-Glo Assay, Promega, Madison, Wis.) according to the manufacturer's procedure. The data were converted to percent inhibition relative to DMSO control, and IC50 curves were fitted using GraphPad Prism software.

SMILES: CC(C)C(=O)N1CCC(c2cc(-c3ccc(NC(=O)c4cn(C(C)C)c(=O)n(-c5ccccn5)c4=O)cc3)c3c(N)ncnn23)CC1 [Compound 1, N-(4-(4-Amino-7-(1-isobutyrylpiperidin-4-yl)pyrrolo[1,2-f][1,2,4]triazin-5-yl)phenyl)-1-isopropyl-2,4-dioxo-3-(pyridin-2-yl)-1,2,3,4-tetrahydropyrimidine-5-carboxamide]
- IC50 (MER): 8.3 ± 3.1 nM
- GI50 [1]: 16 ± 11 nM
